We go through seven compounds from paper PMC8868518, “Exploring Titanium(IV) Complexes as Potential Antimicrobial Compounds” (Antibiotics, 2022).

In general, MIC refers to the least concentration at which growth counts as inhibited. The IC50 is the concentration at which inhibition is half-maximal.

The subject of data set [1] is P. aeruginosa (ATCC 27853). The data set can be described thus: CO-ADD antibacterial assay, growth inhibition (OD600). Conditions: up to 32 μg/mL; for MIC / Dmax: Pseudomonas aeruginosa, ATCC27853; for MIC / MIC P. aeruginosa: predicted or measured MIC, ≥75% growth inhibition; for Dmax: read-out: Dmax P. aeruginosa, maximum % inhibition. Format: cell-based, Pseudomonas aeruginosa.

Data set [2] deals with S. aureus MRSA (ATCC 43300). The description is as above. Format: cell-based, Staphylococcus aureus. Particulars: for MIC / Dmax: Staphylococcus aureus; for MIC / MIC S. aureus (MRSA): predicted or measured MIC, lowest concentration with ≥75% growth inhibition, 0.25-32 μg/mL, 18 h; for Dmax / Dmax S. aureus (MRSA), maximum % inhibition: up to 32 μg/mL; for Dmax: read-out: Dmax S. aureus (MRSA), maximum % inhibition.

In data set [3] the test system is K. pneumoniae (ATCC 700603). Described as above. Format: cell-based, Klebsiella pneumoniae. Particulars: up to 32 μg/mL; for MIC / Dmax: Klebsiella pneumoniae, ATCC700603; for MIC / MIC K. pneumoniae: predicted or measured MIC, ≥75% growth inhibition; for Dmax: read-out: Dmax K. pneumoniae, maximum % inhibition.
In another data set the test system is E. coli (ATCC 25922). The data set is described as above. The class given is cell-based, Escherichia coli. Conditions: up to 32 μg/mL; for MIC / Dmax: Escherichia coli, ATCC25922; for MIC / MIC E. coli: predicted or measured MIC, ≥75% growth inhibition; for Dmax: read-out: Dmax E. coli, maximum % inhibition.
Data set [4] has as its system A. baumannii (ATCC 19606). The data set is described as above. Format: cell-based, Acinetobacter baumannii. Particulars: up to 32 μg/mL; for MIC / Dmax: Acinetobacter baumannii, ATCC19606; for MIC / MIC A. baumannii: predicted or measured MIC, ≥75% growth inhibition; for Dmax: read-out: Dmax A. baumannii, maximum % inhibition.
The conditions of data set [5]: pH 4; cited from earlier work.
For data set [6], the system named is HEK293 ATCC CRL-1573 human embryonic kidney cells. Description: CO-ADD cytotoxicity assay (resazurin). The class given is cell-based. Conditions: for antiproliferative effect against HEK293 (in words): all concentrations examined (0.25-32 μg/mL), 20 h, CC50 could not be measured. On the procedure:
The compounds were used as received by the CO-ADD. For the screenings, most compounds were dissolved to a stock concentration of 10 mg/mL in DMSO. K2[Ti(Citrate)3], Na3Citrate, and K2[TiO(Oxalate)2] were dissolved in warm water. [Cu(Deferasirox)(H2O)]2 was dissolved in pyridine after its solubility was determined to be excellent in pyridine due to coordination of the solvent to the metal producing [Cu(Deferasirox)(pyridine)]2 in situ. […] Each sample concentration was prepared in 384-well plates, non-binding surface plate (NBS; Corning 3640) for each bacterial/fungal strain, tissue-culture treated (TC-treated; Corning 3712/3764), black for mammalian cell types and polypropylene 384-well (PP; […] All sample preparation was conducted using liquid handling robots. HEK293 ATCC CRL-1573 human embryonic kidney cells were counted manually in a Neubauer hemocytometer and added to compound-containing plates (384-well plates, tissue culture-treated (TC); […] Life Technologies 11995-073) with 10% FBS (GE SH30084.03).
A general note: The colour change of resazurin is a common sign of viable cells or microbes.

In the next data set the test system is human red blood cells. The data set can be described thus: CO-ADD hemolysis assay. The class given is cell-based. Particulars: all concentrations examined (0.25-32 μg/mL), 1 h; HC10 and HC50 could not be measured. On the procedure: The compounds were used as received by the CO-ADD. For the screenings, most compounds were dissolved to a stock concentration of 10 mg/mL in DMSO. K2[Ti(Citrate)3], Na3Citrate, and K2[TiO(Oxalate)2] were dissolved in warm water. [Cu(Deferasirox)(H2O)]2 was dissolved in pyridine after its solubility was determined to be excellent in pyridine due to coordination of the solvent to the metal producing [Cu(Deferasirox)(pyridine)]2 in situ. […] Each sample concentration was prepared in 384-well plates, non-binding surface plate (NBS; Corning 3640) for each bacterial/fungal strain, tissue-culture treated (TC-treated; Corning 3712/3764), black for mammalian cell types and polypropylene 384-well (PP; […] All sample preparation was conducted using liquid handling robots. Human whole blood (Australian Red Cross) was washed three times with three volumes of 0.9% NaCl and resuspended in a concentration of 0.5 × 10^8 cells per mL, determined by manual cell count in a Neubauer hemocytometer. Washed cells were added to the compound-containing plates (384-well polypropylene plates (PP); Corning 3657) for a final volume of 50 μL, shaken and incubated for 1 h at 37 °C. […]

Another data set has as its system MRC-5 cells. Particulars: cited from earlier work.

Structures can show the parent of a compound that is named as a salt.

As to `O=C(O)CC(O)(CC(=O)O)C(=O)O` [Compound 1, Trisodium citrate, reference compound], the minimum inhibitory concentration (MIC) (in data set [1]; in data set [2]; in data set [3]; in the data set with E. coli (ATCC 25922); in [4]) was greater than 32 µg/mL each time. Also, the Dmax is 10.3% in data set [1]; 10.6% in data set [2]; 14.2% in [3]; 6.14% with E. coli (ATCC 25922); 18% in data set [4].
As for `Oc1cc2ccccc2cc1O` [Compound 2, 2,3-dihydroxynaphthalene, reference compound], the MIC (in data set [1]; in data set [2]; in [3]; in the data set with E. coli (ATCC 25922); in [4]) was greater than 32 µg/mL in each case. The Dmax was 14.6% in data set [1]; 12.6% in [2]; 26.8% in data set [3]; 6.86% with E. coli (ATCC 25922); 31.3% in data set [4].
For `O=C(O)c1ccccc1O` [Compound 6, salicylic acid, reference compound], the MIC (in data set [1]; in [2]; in data set [3]; in the data set on E. coli (ATCC 25922); in data set [4]) was greater than 32 µg/mL in each case. The Dmax in data set [1] was 9.76%; in data set [2], 13.9%; in data set [3], 17.1%; in the data set on E. coli (ATCC 25922), -0.01%; in [4], 17.9%.
Regarding `[K+].[K+].c1ccc2cc3c(cc2c1)[O][Ti-2]12([O]3)([O]c3cc4ccccc4cc3[O]1)[O]c1cc3ccccc3cc1[O]2` [Compound 8, K2[Ti(Naphthalene-2,3-diolate)3]], the “solution stability (in words)” value in [5] is listed as “highly stable in solution”. Also, in data set [1], the “MIC P. aeruginosa” value was greater than 32 µg/mL and the “Dmax P. aeruginosa, maximum % inhibition” value was determined as 13.43%. For the same compound, in data set [2], the “MIC S. aureus (MRSA)” value is greater than 32 µg/mL and the “Dmax S. aureus (MRSA), maximum % inhibition” value stood at 52.5%. The “antiproliferative effect against HEK293 (in words)” value (shortened to “antiproliferative effect”) in [6] was “inactive”. Moreover, in data set [3], the “MIC K. pneumoniae” value is greater than 32 µg/mL and the “Dmax K. pneumoniae, maximum % inhibition” value is on record as 22.94%. In the data set on E. coli (ATCC 25922), the “MIC E. coli” value was greater than 32 µg/mL and the “Dmax E. coli, maximum % inhibition” value was found to be 2.67%. In [4], the “MIC A. baumannii” value is greater than 32 µg/mL and the “Dmax A. baumannii, maximum % inhibition” value is reported as 24.76%.
`O=C(O)c1ccc(-n2nc3nc2-c2ccccc2[O][Ti]2([O]c4ccccc4-3)[O]c3ccccc3-c3nc(n(-c4ccc(C(=O)O)cc4)n3)-c3ccccc3[O]2)cc1` [Compound 10, titanium(IV) bis(deferasirox)]: the “hemolysis of human red blood cells (in words)” value in the data set with human red blood cells is reported as “insignificant antiproliferative effect”. The “solution stability (in words)” value in [5] is given as “highly stable in solution”. Besides, in data set [1], the “MIC P. aeruginosa” value is greater than 32 µg/mL and the “Dmax P. aeruginosa, maximum % inhibition” value amounted to 7.57%. In data set [2] (converted from 16 μg/mL), the “MIC against MRSA in units of molarity” value turned out to be 20.2 µM. In data set [2], the “MIC S. aureus (MRSA)” value is 16 µg/mL and the “Dmax S. aureus (MRSA), maximum % inhibition” value is reported as 98.2%. Also, in data set [2] (listed as Ti(Deferasirox)2), the “Dmax S. aureus (MRSA), maximum % inhibition” value was roughly 100%. Also, the “antiproliferative effect” value in data set [6] is “insignificant antiproliferative effect”. Moreover, in data set [3], the “MIC K. pneumoniae” value is greater than 32 µg/mL and the “Dmax K. pneumoniae, maximum % inhibition” value was 34.61%. In the data set on E. coli (ATCC 25922), the “MIC E. coli” value was greater than 32 µg/mL and the “Dmax E. coli, maximum % inhibition” value is reported as 20.44%. In the data set on MRC-5 cells, the “IC50 ± SD” value is 19.8 ± 0.8 µg/mL. In addition, the IC50 in the data set on MRC-5 cells (read-out: IC50 ± SD) was 25 ± 1 µM. For the same compound, in data set [4], the “MIC A. baumannii” value is greater than 32 µg/mL and the “Dmax A. baumannii, maximum % inhibition” value came to 16.28%.
Regarding `O=C([O-])C(=O)O.O=C([O-])C(=O)O.[K+].[K+].[O]=[Ti]` [Compound 14, Potassium dioxalatoxotitanate(IV) dihydrate], in the data set on human red blood cells, the “hemolysis of human red blood cells (in words)” value is “insignificant antiproliferative effect”. For the same compound, in data set [1], the “MIC P. aeruginosa” value is greater than 32 µg/mL and the “Dmax P. aeruginosa, maximum % inhibition” value was 7.5%. For the same compound, in data set [2], the “MIC S. aureus (MRSA)” value was greater than 32 µg/mL and the “Dmax S. aureus (MRSA), maximum % inhibition” value worked out at 40.5%. Besides, in data set [6], the “antiproliferative effect” value was “insignificant antiproliferative effect”. In data set [3], the “MIC K. pneumoniae” value is greater than 32 µg/mL and the “Dmax K. pneumoniae, maximum % inhibition” value was found to be 17.2%. In the data set on E. coli (ATCC 25922), the “MIC E. coli” value was greater than 32 µg/mL and the “Dmax E. coli, maximum % inhibition” value is reported as 11.0%. In addition, in [4], the “MIC A. baumannii” value is greater than 32 µg/mL and the “Dmax A. baumannii, maximum % inhibition” value is listed as 8.2%.
Turning to [Cu(Deferasirox)(H2O)]2 [Compound 15], in data set [1], the “MIC P. aeruginosa” value was greater than 32 µg/mL and the “Dmax P. aeruginosa, maximum % inhibition” value worked out at 19.2%. In addition, in data set [2], the “MIC S. aureus (MRSA)” value was greater than 32 µg/mL and the “Dmax S. aureus (MRSA), maximum % inhibition” value was found to be 26.9%. Further, in data set [6] (at the maximum concentration tested), the “inhibition of HEK293 cell proliferation” value is roughly 50%. In addition, in data set [3], the “MIC K. pneumoniae” value is greater than 32 µg/mL and the “Dmax K. pneumoniae, maximum % inhibition” value is listed as 7.7%. Moreover, in the data set with E. coli (ATCC 25922), the “MIC E. coli” value was greater than 32 µg/mL and the “Dmax E. coli, maximum % inhibition” value is on record as −9.5%. In data set [4], the “MIC A. baumannii” value was greater than 32 µg/mL and the “Dmax A. baumannii, maximum % inhibition” value is on record as 7.8%.
